Values of other authors in paper PMC6451745, “Development and dosimetry of ^203Pb/^212Pb-labelled PSMA ligands: bringing “the lead” into PSMA-targeted alpha therapy?” (European Journal of Nuclear Medicine and Molecular Imaging, 2019).
Where two headings read alike, the source gives them in different places.

Tests used:
[1] = mice; cited from earlier work
[2] = parameters: method as in PMID 28891033; conditions: projected treatment activity 1 GBq; cited from earlier work
[3] = parameters: method as in PMID 28408529; conditions: projected treatment activity 6–8 MBq; cited from earlier work

O=C(O)CC[C@H](NC(=O)N[C@@H](CCCCNC(=O)C(Cc1ccc2ccccc2c1)NC(=O)C1CCC(CNC(=O)CN2CCN(CC(=O)O)CCN(CC(=O)O)CCN(CC(=O)O)CC2)CC1)C(=O)O)C(=O)O.[68Ga+3] (stereo partly shown) [^68Ga-PSMA-617]
tumour uptake [1]: 8.5 ± 4.1 %ID/g

O=C(O)CC[C@H](NC(=O)N[C@@H](CCCCNC(=O)C(Cc1ccc2ccccc2c1)NC(=O)C1CCC(CNC(=O)CN2CCN(CC(=O)O)CCN(CC(=O)O)CCN(CC(=O)O)CC2)CC1)C(=O)O)C(=O)O.[213Bi+3] (stereo partly shown) [^213Bi-PSMA-617]
Tissue equivalent dose, Kidneys [2]: 8.1 SvRBE5 | Tissue equivalent dose, Red marrow [2]: 0.5 SvRBE5 | Tissue equivalent dose, Salivary glands [2]: 8.1 SvRBE5

O=C([O-])CC[C@H](NC(=O)N[C@@H](CCCCNC(=O)[C@H](Cc1ccc2ccccc2c1)NC(=O)C1CCC(CNC(=O)CN2CCN(CC(=O)[O-])CCN(CC(=O)[O-])CCN(CC(=O)[O-])CC2)CC1)C(=O)[O-])C(=O)[O-].[225Ac].[H+].[H+].[H+] (stereo partly shown) [^225Ac-PSMA-617]
Tissue equivalent dose, Kidneys [3]: 4.2 SvRBE5 | Tissue equivalent dose, Red marrow [3]: 0.3 SvRBE5 | Tissue equivalent dose, Salivary glands [3]: 13.8 SvRBE5
